In general, pIC50 refers to the IC50 on a negative log10 scale, so that one unit is a factor of ten.

pIC50: −log10 of the molar value.

The record followed here is patent publication US8501770B2 (ArQule, Inc., priority 2009, dated 2013).

Chain of Full-length inactive AKT1 (P31749 whole entry): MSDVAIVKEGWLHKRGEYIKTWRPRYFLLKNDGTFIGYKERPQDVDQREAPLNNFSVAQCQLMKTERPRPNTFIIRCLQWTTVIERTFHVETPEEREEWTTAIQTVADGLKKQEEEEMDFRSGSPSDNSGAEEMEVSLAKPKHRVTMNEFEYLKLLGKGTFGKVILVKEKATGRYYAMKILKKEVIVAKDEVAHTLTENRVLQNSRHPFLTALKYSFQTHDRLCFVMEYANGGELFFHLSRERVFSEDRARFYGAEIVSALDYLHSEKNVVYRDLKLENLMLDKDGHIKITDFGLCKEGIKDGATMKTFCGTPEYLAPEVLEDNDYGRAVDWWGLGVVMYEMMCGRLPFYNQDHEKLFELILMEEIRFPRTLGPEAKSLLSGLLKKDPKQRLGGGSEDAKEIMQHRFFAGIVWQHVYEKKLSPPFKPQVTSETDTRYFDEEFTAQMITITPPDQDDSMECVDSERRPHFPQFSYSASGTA

The assay has as its target Full-length inactive AKT1 (Homo sapiens, UniProt P31749). The assay can be described thus: Inactive Akt Alpha Screen Assay. Format: biochemical. The following applies: values not marked with "*"; read-out: Akt1 IC50, (AlphaScreen). The procedure, abridged: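 AlphaScreen read-out (excitation 640 nm, emission 570 nm) after 90 min incubation at room temperature in the dark. Signal comes from crosstide phosphorylation by AKT1, which was activated by added PDK1, MAPKAPK2, ATP and lipid vesicles, captured via phospho-AKT substrate antibody and streptavidin beads.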
In general terms: In Alpha technology, singlet oxygen from a donor bead excites a nearby acceptor bead.
Take `Cc1cnc2c(c1)nc(-c1cccnc1N)n2-c1ccc(CNC(=O)c2cc(F)ccc2F)cc1` [Example 283, N-(4-(2-(2-aminopyridin-3-yl)-6-methyl-3H-imidazo[4,5-b]pyridin-3-yl)benzyl)-2,5-difluorobenzamide]: the pIC50 was 6.66. The result for `Cc1cnc2c(c1)nc(-c1cccnc1N)n2-c1ccc(CNC(=O)c2ccccn2)cc1` [Example 284, N-(4-(2-(2-aminopyridin-3-yl)-6-methyl-3H-imidazo[4,5-b]pyridin-3-yl)benzyl)picolinamide] reads 6.11; that for `Cc1cnc2c(c1)nc(-c1cccnc1N)n2-c1ccc(CNC(=O)c2cnccn2)cc1` [Example 285, N-(4-(2-(2-aminopyridin-3-yl)-6-methyl-3H-imidazo[4,5-b]pyridin-3-yl)benzyl)pyrazine-2-carboxamide], 6.07. The result for `Cc1cnc2c(c1)nc(-c1cccnc1N)n2-c1ccc(CNC(=O)Cc2nnn[nH]2)cc1` [Example 286, N-(4-(2-(2-aminopyridin-3-yl)-6-methyl-3H-imidazo[4,5-b]pyridin-3-yl)benzyl)-2-(1H-tetrazol-5-yl)acetamide] reads 6.13; that for `CC(C)(C)OC(=O)NCc1ccc(-n2c(-c3cccnc3N)nc3ccc(-c4ccc(CO)cc4)nc32)cc1` [Example 288, tert-butyl 4-(2-(2-aminopyridin-3-yl)-5-(4-(hydroxymethyl)phenyl)-3H-imidazo[4,5-b]pyridin-3-yl)benzylcarbamate], 6.35. `CC(=O)Nc1ccc(-c2ccc3nc(-c4cccnc4N)n(-c4ccc(CNC(=O)c5cccc(F)c5)cc4)c3n2)cc1` [Example 291, N-(4-(5-(4-acetamidophenyl)-2-(2-amino-pyridin-3-yl)-3H-imidazo[4,5-b]pyridin-3-yl)benzyl)-3-fluorobenzamide]: the negative logarithm of the IC50 (pIC50) was 7.25.

Take `CC(=O)Nc1cccc(-c2ccc3nc(-c4cccnc4N)n(-c4ccc(CNC(=O)c5ccc(C)c(F)c5)cc4)c3n2)c1` [Example 293, N-(4-(5-(3-acetamidophenyl)-2-(2-aminopyridin-3-yl)-3H-imidazo[4,5-b]pyridin-3-yl)benzyl)-3-fluoro-4-methylbenzamide]: the negative-log IC50 (pIC50) is 8.02. On to `Cc1ccc2cc(NC(=O)Cc3ccc(-n4c(-c5cccnc5N)nc5cc(Br)cnc54)cc3)ccc2n1` [Example 298, 2-(4-(2-(2-aminopyridin-3-yl)-6-bromo-3H-imidazo[4,5-b]pyridin-3-yl)phenyl)-N-(2-methylquinolin-6-yl)acetamide], for which the pIC50 was 7.85.

Consider `Nc1ncccc1-c1nc2cc(Br)cnc2n1-c1ccc(CC(=O)Nc2cccc(F)c2)cc1` [Example 299, 2-(4-(2-(2-aminopyridin-3-yl)-6-bromo-3H-imidazo[4,5-b]pyridin-3-yl)phenyl)-N-(3-fluorophenyl)acetamide], for which the pIC50 was 6.89. For the compound `Cc1ccc2nc(-c3cccnc3N)n(-c3ccc(CC(=O)Nc4cccc(F)c4)cc3)c2n1` [Example 300, 2-(4-(2-(2-aminopyridin-3-yl)-5-methyl-3H-imidazo[4,5-b]pyridin-3-yl)phenyl)-N-(3-fluorophenyl)acetamide], the negative-log IC50 (pIC50) was 6.77. Then `Cc1ccc2nc(-c3cccnc3N)n(-c3ccc(CC(=O)Nc4ccccc4)cc3)c2n1` [Example 301, 2-(4-(2-(2-aminopyridin-3-yl)-5-methyl-3H-imidazo[4,5-b]pyridin-3-yl)phenyl)-N-phenylacetamide], with 7.18.

In the case of `Cc1ccc2cc(NC(=O)Cc3ccc(-n4c(-c5cccnc5N)nc5ccc(C)nc54)cc3)ccc2n1` [Example 302, 2-(4-(2-(2-aminopyridin-3-yl)-5-methyl-3H-imidazo[4,5-b]pyridin-3-yl)phenyl)-N-(2-methylquinolin-6-yl)acetamide], the pIC50 is 7.11. The result for `Nc1ncccc1-c1nc2cc(Br)cnc2n1-c1ccc(NC(=O)c2ccccc2)cc1` [Example 304, N-(4-(2-(2-aminopyridin-3-yl)-6-bromo-3H-imidazo[4,5-b]pyridin-3-yl)phenyl)benzamide] reads 7.70; that for `Nc1ncc(-c2ccc3nc(-c4cccnc4N)n(-c4ccc(CNC(=O)c5cccc(F)c5)cc4)c3n2)cn1` [Example 306, N-(4-(2-(2-aminopyridin-3-yl)-5-(2-aminopyrimidin-5-yl)-3H-imidazo[4,5-b]pyridin-3-yl)benzyl)-3-fluorobenzamide], 7.92; that for `Nc1ncccc1-c1nc2ccc(-c3cc[nH]c3)nc2n1-c1ccc(CNC(=O)c2cccc(F)c2)cc1` [Example 309, N-(4-(2-(2-aminopyridin-3-yl)-5-(1H-pyrrol-3-yl)-3H-imidazo[4,5-b]pyridin-3-yl)benzyl)-3-fluorobenzamide], 7.64. In the case of `Cc1noc(C)c1-c1ccc2nc(-c3cccnc3N)n(-c3ccc(CNC(=O)c4cccc(F)c4)cc3)c2n1` [Example 310, N-(4-(2-(2-aminopyridin-3-yl)-5-(3,5-dimethylisoxazol-4-yl)-3H-imidazo[4,5-b]pyridin-3-yl)benzyl)-3-fluorobenzamide], the pIC50 was 7.10. On to `Nc1ncccc1-c1nc2ccc(-c3c[nH]c(=O)[nH]c3=O)nc2n1-c1ccc(CNC(=O)c2cccc(F)c2)cc1` [Example 311, N-(4-(2-(2-aminopyridin-3-yl)-5-(2,4-dioxo-1,2,3,4-tetrahydropyrimidin-5-yl)-3H-imidazo[4,5-b]pyridin-3-yl)benzyl)-3-fluorobenzamide], for which the pIC50 was 7.54. Then `Nc1ncccc1-c1nc2ccc(-c3ccc(C(=O)O)o3)nc2n1-c1ccc(CNC(=O)c2cccc(F)c2)cc1` [Example 312, 5-(2-(2-aminopyridin-3-yl)-3-(4-((3-fluoro-benzamido)methyl)phenyl)-3H-imidazo[4,5-b]pyridin-5-yl)furan-2-carboxylic acid], with 7.47; and `CS(=O)(=O)Nc1ccccc1-c1ccc2nc(-c3cccnc3N)n(-c3ccc(CNC(=O)c4cccc(F)c4)cc3)c2n1` [Example 313, N-(4-(2-(2-aminopyridin-3-yl)-5-(2-(methylsulfonamido)phenyl)-3H-imidazo[4,5-b]pyridin-3-yl)benzyl)-3-fluorobenzamide], with 6.92. Then `NCc1ccc(-c2ccc3nc(-c4cccnc4N)n(-c4ccc(CNC(=O)c5cccc(F)c5)cc4)c3n2)cc1` [Example 314, N-(4-(5-(4-(aminomethyl)phenyl)-2-(2-aminopyridin-3-yl)-3H-imidazo[4,5-b]pyridin-3-yl)benzyl)-3-fluorobenzamide], with 7.60; and `C[S+]([O-])c1ccc(-c2ccc3nc(-c4cccnc4N)n(-c4ccc(CNC(=O)c5cccc(F)c5)cc4)c3n2)cc1` (centres unmarked) [Example 315, N-(4-(2-(2-aminopyridin-3-yl)-5-(4-(methylsulfinyl)phenyl)-3H-imidazo[4,5-b]pyridin-3-yl)benzyl)-3-fluorobenzamide], with 7.44; and `Nc1ncccc1-c1nc2ccc(-c3ccco3)nc2n1-c1ccc(CNC(=O)c2cccc(F)c2)cc1` [Example 316, N-(4-(2-(2-aminopyridin-3-yl)-5-(furan-2-yl)-3H-imidazo[4,5-b]pyridin-3-yl)benzyl)-3-fluorobenzamide], with 7.46. Then `Nc1ncccc1-c1nc2ccc(-c3ccsc3)nc2n1-c1ccc(CNC(=O)c2cccc(F)c2)cc1` [Example 317, N-(4-(2-(2-aminopyridin-3-yl)-5-(thiophen-3-yl)-3H-imidazo[4,5-b]pyridin-3-yl)benzyl)-3-fluorobenzamide], with 7.62.
